From US4595698A, “Physiologically active substance, arphamenine and production thereof” (Zaidan Hojin Biseibutsu Kagaku Kenkyu Kai, priority 1982, dated 1986)

Assays:
[1] = test system: cell-mediated immunity (D.T.H. to picryl chloride); test: D.T.H. to picryl chloride in mice bearing Ascites Sarcoma 180 tumor, Test Example 2 (2); type: in vivo, CDF1 mice; conditions: for Increased thickness of auricles / T/C (%): Table 4, 6 times/day, Day 1 to Day 8; for T/C (%): control = 100
Protocol: (2) D.T.H. to picryl chloride
In mice bearing Ascites Sarcoma 180 tumor, the effect of arphamenine A on D.T.H. to picryl chloride as antigen was investigated. Thus, 10^6 cells of Ascites Sarcoma 180 were transplanted intraperitoneally into CDF1 mice (12-week-old, female, 6 mice per group). The day of this transplantation was designated as Day 0. On Day 1, a shaved area (25 mm×15 mm) of the abdomen of the mice was immunized with 0.6 ml of a solution of 6% picryl chloride in ethanol which had been absorbed to a mass of cut absorbent cotton (20 mm×20 mm×2 mm in size). On Day 8, the thickness of the auricles of both ears was measured with a dial gauge to obtain a baseline value (a). Then, both auricles were elicited for the D.T.H. response with a solution of 1% picryl chloride in olive oil which had been absorbed to a mass of cut absorbent cotton (10 mm×4 mm×1 mm in size). On Day 9, the swelling degree on the elicited auricles was measured with a dial gauge to obtain a value (b). The baseline value (a) was subtracted from the value (b) to determine an increase in the thickness of the auricles (b-a) in the control group of mice (c).
Separately, 0.5, 0.05 or 0.005 mg/kg of the test compound dissolved in physiological saline was orally administered to another group of CDF1 mise 6 times/day for consecutive days of from Day 1 to Day 8 inclusive, and then the picryl chloride elicitation was carried out with the treated group of mice in the same way as in the control group of mice. The increase in the thickness of both auricles (b'-a') in this treated group of mice (T) was determined in the same way as the control group of mice.
The rate (T/C, %) of the increased thickness of auricles of the treated group (T) in term of that for the control group (c) was calculated from the following equation [formula]
Assumed that the value for the control group was evaluated to be 100%, the activity of the test compound to potentiate cell-mediated immunity was estimated.

Ehrlich Solid Tumor = test: Anti-tumor activity against Ehrlich Solid Tumor, Test Example 3; type: in vivo, ddY mice; conditions: for Average size of tumor / Average weight of tumor / TIR (%), tumor size / TIR (%), tumor weight: 7 times on alternate days, day 30
Protocol: Anti-tumor activity of arphamenine against Ehrlich Solid Tumor.
3×10^6 cells of Ehrlich ascites tumor were transplanted subcutaneously into the flank of ddY mice (8-week old, female, 5 mice per group). The day of this transplantation was designated as Day 0. Then, 0.5, 0.05 or 0.005 mg/kg of the test compound dissolved in physiological saline solution was orally administered to the mice a total of 7 times on alternate days until Day 15, beginning on Day 1. On day 30, the size (shorter diameter^2 ×longer diameter/2) of tumor and the weight of tumor were measured. The results in this treated group of mice were compared with those in the control group of mice to calculate tumor inhibition rate (TIR, %) according to the following equation: [formula] where C denotes the size or weight of tumor in the control group, and T denotes the size or weight of tumor in the treated group.

mice = test: Acute toxicity tests in mice by intravenous injection; type: in vivo; conditions: iv. dose of 250 mg/kg
Protocol: Acute toxicity tests in mice by intravenous injection have shown that no deaths are caused by arphamenine A in an iv. dose of 250 mg/kg or by arphamenine B in an iv. dose of 150 mg/kg. […] These new compounds are therefore useful as immunopotentiators and anti-tumor immunomodulators or as adjuvants to various chemotherapeutic agents for use in the treatment of carcinomas.

[2] = test system: cell-mediated immunity (D.T.H. response to sheep red blood cells); test: Delayed Type Hypersensitivity (D.T.H.) to SRBC in normal mice, Test Example 1; conditions: for Increased thickness of footpad / T/C (%): Table 1, single oral dose; for T/C (%): control = 100
Protocol: Effect of arphamenine on cell-mediated immunity in normal mice.
Effect of arphamenines A and B on the cell-mediated immunity was tested according to a known Delayed Type Hypersensitivity (D.T.H.) technique (see P. H. Lagrange, G. B. Mackaness and T. E. Miller: "J. Exp. Med.", 139, 1529~1539 (1974)) using mice immunized with sheep red blood cells (SRBC) as the antigen inoculated to the foot-pad pad of the mice.
Thus, 10^8 SRBC suspended in 0.05 ml of physiological saline was inoculated by subcutaneous injection to the one side of hind footpad of CDF1 mice (5 mice per group, female, 8-weeks old) to make immunization. At the time of this immunization, an aqueous solution containing 5 mg/kg, 0.5 mg/kg, 0.05 mg/kg or 0.005 mg/kg of arphamenine A or B was administered orally at a single dose to each test mice. 4 Days after the immunization, 10^8 SRBC in 0.05 ml of physiological saline was injected subcutaneously into the other side of the hind footpad of the test mice for elicitation of D.T.H. response. 24 Hours after the eliciting injection, the thickness (in mm) of the hind footpad having received the eliciting injection of SRBC was measured with calipers. At the same time, the thickness of the other side of footpad which had not received the eliciting injection of SRBC was also measured in each mouse.
The increase of footpad thickness (the swelling degree) was calculated by the following equation: [formula]
The effect of arphamenine on the DTH response was evaluated by the following equation: [formula]
Therefore, the assumption was here that the value for the control mice (untreated) was evaluated to be 100%.

[3] = test system: cell-mediated immunity (D.T.H. to SRBC); test: D.T.H. to SRBC in tumor-bearing (Sarcoma 180) mice, Test Example 2 (1); type: in vivo, CDF1 mice; conditions: for Increased thickness of footpad / T/C (%): 4 days; for T/C (%): control = 100
Protocol: The swelling degree on the footpad in mice was evaluated in the same way as in Test Example 1, except that the CDF1 mice employed for the test previously received an intraperitoneal inoculation of 10^6 Sarcoma 180 cells, and that arphamenine A was administered intraperitoneally once daily for 4 consecutive days, including the day of inoculation of SRBC, and two days after the administration, SRBC was given to the treated mice to elicit D.T.H. response.

[4] = Table 3, fourth line, 0.005 mg/kg intraperitoneally once daily
[5] = Table 3, third line, 0.005 mg/kg (so in the source) intraperitoneally once daily
[6] = Table 3, 0.5 mg/kg intraperitoneally once daily
[7] = Table 3, 5 mg/kg intraperitoneally once daily

N=C(N)NCCCC(N)C(=O)CC(Cc1ccccc1)C(=O)O (stereo not shown) [Arphamenine A]
activity to enhance cell-mediated immunity (in words) ([1]; 0.05 mg/kg): a significant activity to enhance cell-mediated immunity was obtained | Increased thickness of auricles ([1]; 0.005 mg/kg orally): 6.40 ± 0.63 × 0.1 mm | T/C (%) ([1]; 0.005 mg/kg orally): 143.8% | Increased thickness of auricles ([1]; 0.05 mg/kg orally, *P <0.05): 7.40 ± 0.72 × 0.1 mm | T/C (%) ([1]; 0.05 mg/kg orally): 166.3% | Increased thickness of auricles ([1]; 0.5 mg/kg orally): 6.05 ± 0.97 × 0.1 mm | T/C (%) ([1]; 0.5 mg/kg orally): 136.0% | Average size of tumor (Ehrlich Solid Tumor; 0.005 mg/kg orally): 2378 ± 3138 mm^3 | Average weight of tumor (Ehrlich Solid Tumor; 0.005 mg/kg orally): 1.62 ± 1.44 g | TIR (%), tumor size (Ehrlich Solid Tumor; 0.005 mg/kg orally): 55.2% | TIR (%), tumor weight (Ehrlich Solid Tumor; 0.005 mg/kg orally): 39.3% | TIR (%), tumor size (Ehrlich Solid Tumor; 0.05 mg/kg orally): 41.2% | TIR (%), tumor weight (Ehrlich Solid Tumor; 0.05 mg/kg orally): 37.8% | Average weight of tumor (Ehrlich Solid Tumor; 0.05 mg/kg orally, **P < 0.05 (Ttest)): 1.66 ± 1.50 g | Average size of tumor (Ehrlich Solid Tumor; 0.05 mg/kg orally, *P < 0.1 (Ttest)): 3120 ± 3584 mm^3 | Average size of tumor (Ehrlich Solid Tumor; 0.5 mg/kg orally): 4467 ± 4311 mm^3 | Average weight of tumor (Ehrlich Solid Tumor; 0.5 mg/kg orally): 2.62 ± 1.90 g | TIR (%), tumor size (Ehrlich Solid Tumor; 0.5 mg/kg orally): 15.8% | TIR (%), tumor weight (Ehrlich Solid Tumor; 0.5 mg/kg orally): 1.9% | host-mediated anti-tumor effect in terms of tumor size and tumor weight (in words) (Ehrlich Solid Tumor; 0.05 and 0.005 mg/kg): produced a host-mediated anti-tumor effect | host-mediated anti-tumor effect (in words) (Ehrlich Solid Tumor; summary statement): exhibit a host-mediated anti-tumor effect | deaths, acute toxicity (mice): no deaths | Increased thickness of footpad ([2]; 0.005 mg/kg): 11.9 ± 1.00 × 0.1 mm | T/C (%) ([2]; 0.005 mg/kg): 143% | Increased thickness of footpad ([2]; 0.05 mg/kg): 13.0 ± 0.97 × 0.1 mm | T/C (%) ([2]; 0.05 mg/kg): 157% | Increased thickness of footpad ([2]; 0.5 mg/kg): 11.5 ± 1.29 × 0.1 mm | T/C (%) ([2]; 0.5 mg/kg): 139% | Increased thickness of footpad ([2]; 5 mg/kg): 10.4 ± 0.77 × 0.1 mm | T/C (%) ([2]; 5 mg/kg): 125% | cell-mediated immunity in normal animals (in words) ([2]; normal animals): potentiate the cell-mediated immunity in normal animals | Increased thickness of footpad [3, 4]: 5.9 ± 0.79 × 0.1 mm | T/C (%) [3, 4]: 131% | Increased thickness of footpad [3, 5]: 6.5 ± 1.29 × 0.1 mm | T/C (%) [3, 5]: 144% | Increased thickness of footpad [3, 6]: 6.7 ± 1.03 × 0.1 mm | T/C (%) [3, 6]: 149% | Increased thickness of footpad [3, 7]: 5.8 ± 1.19 × 0.1 mm | T/C (%) [3, 7]: 129% | cell-mediated immunity depressed by the tumor (in words) ([3]; tumor-bearing): modulate the cell-mediated immunity depressed by the tumor
